Here are results for one compound from patent EP4257130A1, “INOBRODIB FOR USE IN THE TREATMENT OF PULMONARY ARTERIAL HYPERTENSION” (Justus-Liebig-Universität Gießen, priority 2022, dated 2023).

One test relates to PAH-PCLS. Description: Vascular remodelling (medial wall thickness) in precision-cut lung slices ex vivo. Format: cell-based, Mensch. Particulars: human PAH-PCLS, 200 µM on days 2 and 6, fixed day 10, vessels 20-150 µm, vs. DMSO. The source says:
Lungengewebeproben wurden von Patienten mit IPAH entnommen. Aus den mit 3% niedrigschmelzender Agarose gefüllten Lungenproben von Patienten mit IPAH wurden mit einem Vibratom (Leica Biosystems) Gewebeschnitte (400 µm dick) angefertigt. Die Lungengewebeschnitte wurden in DMEM-GlutaMAX-Medium mit 10 % fetalem Kälberserum, 1 % Penicillin/Streptomycin und 0,1 % Amphotericin B (Thermo Fisher Scientific) kultiviert, und die Behandlung wurde am zweiten Tag eingeleitet. Die Substanz CCS1477 wurde in einer Konzentration von 200 µM an den Tagen 2 und 6 verabreicht. Am 10. Tag wurde das Gewebe in 4% Paraformaldehyd (Roti-Histofix; Carl Roth) fixiert und in Paraffin eingebettet. Die mediale Wanddicke wurde in allen Gefäßen mit einer Größe von 20-150 µm in den Lungenschnitten gemessen.
Das therapeutische Potenzial der EP300/CREBBP-Hemmung durch die Substanz CCS1477 wurde untersucht. Dazu wurde die Wirksamkeit auf PAH-FBs und PAH-SMCs geprüft, die aus den Lungenarterien von menschlichen PAH-Patienten und aus den Lungenarterien von Ratten mit MCT-PAH (Rattenmodell mit Monocrotalin) isoliert wurden. […] Die Wirkung der EP300-Hemmung auf das vaskuläre Remodelling wurde durch Quantifizierung der prozentualen medialen Wanddicke in den mit der Substanz CCS1477 inkubierten PCLS im Vergleich zu den mit DMSO inkubierten Kontrollen bewertet. […]

The test system of test [1] is PAH-FBs. The test is described as follows: Cell proliferation by BrdU incorporation in PAH fibroblasts. The format is cell-based, Mensch. The following applies: PAH-FBs isolated ex vivo, various concentrations, 24 h, vs. DMSO. The source says: (§1) Diese Untersuchungen führten zu der Erkenntnis, dass die epigenetische Regulation der entwicklungsbedingten TF-Expression in der Lunge durch Modulation der EP300/CREBBP-Funktion rückgängig gemacht werden kann. Die Wirkung des niedermolekularen Inhibitors (Substanz, Wirkstoff) CCS1477 auf die Proliferation von Gefäßzellen, die Apoptose sowie die Gen- und Proteinexpression wurde mit Hilfe geeigneter Assays nach der Transfektion untersucht. Nachdem Zellen zur Subkonfluenz gewachsen sind, wurde ihnen mit steigenden Konzentrationen der selektive EP300-Inhibitor CCS1477 (Chemietek, Katalognummer: CT-CCS1477) hinzugefügt. Die aus PAH-Patienten isolierten FBs wurden also mit dem isoformselektiven HAT-Inhibitor CCS1477 behandelt. […]
(§2) • Abbildung 1: Umkehrung von PAH-Phänotypen durch therapeutische Modulation der dysregulierten HATs EP300 und CREBBP ex vivo • A: PAH-FBs wurden mit siRNAs (siP300) behandelt, die auf EP300 abzielen (n=3), um die genspezifische funktionelle Rolle von EP300 bei der Hyperproliferation ex vivo 48 Stunden nach der Transfektion zu untersuchen. […] Skalenbalken: 50 µm. • E: Die Wirkung der P300-Inhibition (200 µM) auf den Gefäßumbau wurde durch Quantifizierung der prozentualen medialen Wanddicke in den mit dem EP300/CREBBP-Inhibitor CCS1477 inkubierten PCLS im Vergleich zu den mit DMSO inkubierten Kontrollen bewertet. […]
(In general: Incorporation of labelled thymidine or its analogues reports DNA synthesis.)

The test system of test [2] is PAH-FBs. Description: Apoptosis by Cell Death Detection ELISAPLUS in PAH fibroblasts. Format: cell-based, Mensch. The following applies: PAH-FBs isolated ex vivo, various concentrations, 24 h, vs. DMSO.
From the text: as §1, §2

The subject of a further test is MCT-PAH. Description: MCT-PAH rat model: right heart catheterisation and histology. The format is in vivo, SD-Ratten. The following applies: MCT-PAH rats, three times weekly for two weeks. The text has this: (§3) Um das therapeutische Potenzial der EP300/CREBBP-Hemmung in vivo weiter zu erforschen, haben die Erfinder Versuchstiere in drei verschiedenen Nagetiermodellen mit etablierter PAH mit der Substanz CCS1477 behandelt, wobei CCS1477 durch orale Verabreichung über zwei Wochen lang dreimal wöchentlich verabreicht wurde. Es wurden folgende drei verschiedenen Nagetiermodelle für eine PAH (FHR-PAH, MCT-PAH und SuHx-PAH) getestet: • Fawn-hooded hypertensive Ratten (FHR): Das ist ein genetischer Rattenstamm, bei dem PAH im Alter spontan auftritt und der ähnliche PAH-Anomalien aufweist, wie sie bei IPAH bei Menschen nach 40 Wochen auftreten. • Durch Monocrotalin (MCT) induziertes PAH-Rattenmodell. • Ein SUGEN5416/chronische Hypoxie (SuHx)-Rattenmodell für PAH, bei dem die Ratten eine einmalige Injektion von SUGEN5416 erhielten und anschließend einer chronischen Hypoxie (10% O2) ausgesetzt wurden (SuHx-PAH).
(§4) Für die MCT-PAH wurden männlichen und weiblichen SD-Ratten (Sprague-Dawley-Ratten) subkutan 60 mg/kg MCT (Sigma, Katalog: C2401) injiziert, um PAH zu induzieren. Bei der SuHx-PAH erhielten SD-Ratten eine einmalige subkutane Injektion von SUGEN5416 (20 mg/kg) und wurden drei Wochen lang einer normobaren Hypoxie ausgesetzt, bevor sie für zwei Wochen an die Raumluft zurückkehrten. Zwei Wochen nach der MCT-Injektion bzw. drei Wochen nach der SUGEN5416-Injektion (sobald PAH festgestellt wurde) wurden die Ratten nach dem Zufallsprinzip in vier Gruppen eingeteilt und erhielten zwei Wochen lang dreimal wöchentlich entweder Vehikel (Verabreichung von 1 % Methylcellulose in destilliertem Wasser oder intratracheale Vernebelung von 4 % DMSO in PBS als Negativkontrolle), CCS1477 (Verabreichung von 10 mg/kg in 1 % Methylcellulose + destilliertem Wasser). Einjährige männliche und weibliche FHR-Ratten mit etablierter PAH wurden in dieselben vier Gruppen wie beim MCT-Modell eingeteilt und denselben Behandlungsmethoden unterzogen. Nach zweiwöchiger Behandlung wurde eine Rechtsherzkatheteruntersuchung bei geschlossenem Thorax durchgeführt, um folgende hämodynamischen Daten zu erfassen: Systolischer Rechtsventrikulärer Druck (RVSP), mittlerer PA-Druck (mPAP), Herzzeitvolumen (CO) und Schlagvolumen (SV). Der Gesamtwiderstand der Lunge (TPR) wurde durch Division von mPAP durch CO ermittelt. Nach der hämodynamischen Messung wurden den Ratten Gewebeproben entnommen. Die Experimente wurden gemäß den Richtlinien des Canadian Council on Animal Care durchgeführt. Alle Protokolle wurden von der institutionellen Ethikkommission für Tiere (Tierschutzausschuss der Universität Laval) geprüft und genehmigt (Protokollnummer 2019-018-2). Alle Experimente folgten den Richtlinien für die präklinische Forschung bei PAH.
(§5) • Abbildung 1: Umkehrung von PAH-Phänotypen durch therapeutische Modulation der dysregulierten HATs EP300 und CREBBP ex vivo • A: PAH-FBs wurden mit siRNAs (siP300) behandelt, die auf EP300 abzielen (n=3), um die genspezifische funktionelle Rolle von EP300 bei der Hyperproliferation ex vivo 48 Stunden nach der Transfektion zu untersuchen. Die Zellproliferation wurde durch BrdU-Inkorporation bestimmt. Die Werte wurden auf scrambled siRNA (siScr) normalisiert und sind als Mittelwert ± SD angegeben (n=3, ungepaarter t-Test; *P < 0,05 vs. scrambled siRNA). • B: PAH-FBs wurden mit verschiedenen Konzentrationen des EP300/CREBBP-Inhibitors CCS1477 oder dem Lösungsmittel DMSO inkubiert, um die Wirkung der selektiven EP300/CREBBP-Inhibition auf die Zellproliferation (bewertet durch BrdU-Inkorporation) zu untersuchen. Als Vergleichssubstanz wurde ein weiterer EP300/CREBBP-Inhibitor (SGC-CBP30) parallel dazu unter denselben Bedingungen inkubiert. […]

Another test deals with SuHx-PAH. The test is described as follows: SuHx-PAH rat model (SUGEN5416/chronic hypoxia): right heart catheterisation and histology. The format is in vivo, SD-Ratten. Particulars: three times weekly for two weeks.
From the text: as §3, §4, §5

The test system of test [3] is PAH-SMCs. Description: Cell proliferation (hyperproliferative phenotype) in PAH smooth muscle cells. The format is cell-based, Mensch. Particulars: vs. DMSO. The text has this:
(§6) Diese Untersuchungen führten zu der Erkenntnis, dass die epigenetische Regulation der entwicklungsbedingten TF-Expression in der Lunge durch Modulation der EP300/CREBBP-Funktion rückgängig gemacht werden kann. Die Wirkung des niedermolekularen Inhibitors (Substanz, Wirkstoff) CCS1477 auf die Proliferation von Gefäßzellen, die Apoptose sowie die Gen- und Proteinexpression wurde mit Hilfe geeigneter Assays nach der Transfektion untersucht. Nachdem Zellen zur Subkonfluenz gewachsen sind, wurde ihnen mit steigenden Konzentrationen der selektive EP300-Inhibitor CCS1477 (Chemietek, Katalognummer: CT-CCS1477) hinzugefügt. Die aus PAH-Patienten isolierten FBs wurden also mit dem isoformselektiven HAT-Inhibitor CCS1477 behandelt. Gleichzeitig wurde den Zellen das Lösungsmittel DMSO (Sigma) mit entsprechenden Konzentrationen hinzugefügt.
(§7) PAH-FBs wurden mit verschiedenen Konzentrationen der Substanz CCS1477 oder dem Lösungsmittel DMSO inkubiert, um die Zellproliferation und die Induktion von Apoptose 24 Stunden danach zu untersuchen. […]
(§8) Das therapeutische Potenzial der EP300/CREBBP-Hemmung durch die Substanz CCS1477 wurde untersucht. […] Die Wirkung der EP300-Hemmung auf das vaskuläre Remodelling wurde durch Quantifizierung der prozentualen medialen Wanddicke in den mit der Substanz CCS1477 inkubierten PCLS im Vergleich zu den mit DMSO inkubierten Kontrollen bewertet. […]

The subject of test [4] is PAH-SMCs. Description: Apoptosis in PAH smooth muscle cells. Format: cell-based, Mensch. The following applies: vs. DMSO.
From the text: as §6, §7, §8

The subject of a further test is FHR-PAH. Description: FHR-PAH rat model: right heart catheterisation and histology. Format: in vivo, Fawn-hooded hypertensive Ratten. Particulars: FHR-PAH rats, three times weekly for two weeks.
From the text: as §3, §4, §5

Setting [5] is: 10 mg/kg in 1 % methylcellulose, oral, vs. vehicle.
[6] abbreviates: 10 mg/kg oral, TPR = mPAP divided by CO.
Where [7] appears, read: SUGEN5416/chronic hypoxia PAH rats, 10 mg/kg oral, vs. vehicle.
The mark [8] stands for this setting: SuHx-PAH rats, 10 mg/kg in 1 % methylcellulose, oral, vs. vehicle.

For the compound `CO[C@H]1CC[C@H](n2c([C@@H]3CCCC(=O)N3c3ccc(F)c(F)c3)nc3cc(-c4c(C)noc4C)ccc32)CC1` [CCS1477, (S)-1-(3,4-difluorophenyl)-6-(5-(3,5-dimethylisoxazol-4-yl)-1-((1r,4S)-4-methoxycyclohexyl)-1H-benzo[d]imidazol-2-yl)piperidin-2-on], the “mediale Wanddicke der umgestalteten PAs” value with PAH-PCLS is on record as “signifikante Verringerung der medialen Wanddicke”. Further, the “hyperproliferativer Phänotyp (Zellproliferation, Einbau von BrdU)” value in the test on PAH-FBs [1] was “schwächte den hyperproliferativen Phänotyp und die Apoptoserate von PAH-FBs und PAH-SMCs deutlich ab”. In the test on PAH-FBs [2], the “Apoptoserate (Induktion von Apoptose, Cell Death Detection ELISAPLUS)” value is “schwächte den hyperproliferativen Phänotyp und die Apoptoserate von PAH-FBs und PAH-SMCs deutlich ab”. Moreover, the RVSP result with MCT-PAH (setting [5]), with SuHx-PAH (setting [8]) and in the test with FHR-PAH (setting [5]) was “signifikanten Senkung” in each case. Moreover, the mPAP result in the test on MCT-PAH (setting [5]), with SuHx-PAH (setting [8]) and in the test with FHR-PAH (setting [5]) was “signifikanten Senkung” throughout. Further, the “mediale Wanddicke der distalen PAs” value with MCT-PAH (10 mg/kg oral) is given as “signifikant verringert”; in the test with SuHx-PAH (SuHx-PAH rats, 10 mg/kg oral), “signifikant verringert”; in the test with FHR-PAH (10 mg/kg oral), “signifikant verringert”. Also, the CO result in the test with MCT-PAH (10 mg/kg oral, vs. vehicle) is “verbesserten sich nach der Behandlung mit der Substanz CCS1477 bei FHR-PAH und MCT-PAH signifikant”; in the test on SuHx-PAH (setting [7]) it was “verbesserte CO und SV auch bei SUGEN5416/chronischer Hypoxie-PAH signifikant”; in the test with FHR-PAH (10 mg/kg oral, vs. vehicle) it was “verbesserten sich nach der Behandlung mit der Substanz CCS1477 bei FHR-PAH und MCT-PAH signifikant”. The SV result with MCT-PAH (10 mg/kg oral, vs. vehicle) is listed as “verbesserten sich nach der Behandlung mit der Substanz CCS1477 bei FHR-PAH und MCT-PAH signifikant”; in the test with SuHx-PAH (setting [7]) it was “verbesserte CO und SV auch bei SUGEN5416/chronischer Hypoxie-PAH signifikant”; with FHR-PAH (10 mg/kg oral, vs. vehicle) it was “verbesserten sich nach der Behandlung mit der Substanz CCS1477 bei FHR-PAH und MCT-PAH signifikant”. Also, the TPR entry in the test with MCT-PAH (setting [6]) is “signifikanten Senkung”; in the test with SuHx-PAH (SuHx-PAH rats, 10 mg/kg oral, TPR = mPAP divided by CO), “signifikanten Senkung”; in the test on FHR-PAH (setting [6]), “signifikanten Senkung”. For the same compound, in the test on PAH-SMCs [3], the “hyperproliferativer Phänotyp” value is “schwächte den hyperproliferativen Phänotyp und die Apoptoserate von PAH-FBs und PAH-SMCs deutlich ab”. Besides, the Apoptoserate result in the test with PAH-SMCs [4] is listed as “schwächte den hyperproliferativen Phänotyp und die Apoptoserate von PAH-FBs und PAH-SMCs deutlich ab”. In the test with FHR-PAH (10 mg/kg oral), the “molekulare Marker für Myokardhypertrophie” value was “signifikant abgeschwächt”.
